Experimental data: patent publication US9809582B2, “Aminoester derivatives” (CHIESI FARMACEUTICI S.p.A., priority 2015, dated 2017)
pIC50: −log10 of the molar value. Read-outs that look alike come from different tables or passages of the source.

Legend:
Human M3 receptor = Human M3 receptor (Homo sapiens (Human), UniProt P20309); experiment: M3 receptor radioligand binding assay
Method: M3 Receptor Radioligand Binding Assay:
The assay is carried out in 96-well polypropylene plates in a volume of 250 μl. […] The final assay concentration of DMSO is 0.5% (v/v). The plates are sealed and incubated for 2 h at room temperature on an orbital shaker (slow speed). Membranes are harvested onto 96-well unifilter GF/C filter plates pre-treated with 0.5% polyethyleneimine (v/v), using a filter manifold, washed four times with […] of assay buffer. The plates are dried before addition of 50 μl of microscint-0, sealed then read in a Trilux Microbeta scintillation counter. IC50 values are determined from competition curves using a non-linear curve fitting program. Ki values are calculated from IC50 values by the Cheng and Prusoff equation.

Human recombinant PDE4B2 = Human recombinant PDE4B2 (Homo sapiens (Human), UniProt Q07343); experiment: PDE4B2 HTRF assay; format: biochemical
Method: PDE4B2 activity is detected using the LANCE Ultra cAMP homogeneous time resolved fluorescence resonance energy transfer (TR-FRET) assay from Perkin Elmer. The assay is based on the competition between the europium (Eu) chelate-labeled cAMP tracer and sample cAMP for binding sites on cAMP-specific monoclonal antibodies (mAb) labelled with the ULight™ dye. The assay is carried out in 384-well low volume plates in a volume of 10 μl. Human recombinant PDE4B2 (80 pM) is incubated for 2 h with 3 nM cAMP in buffer containing 1×HBSS, 5 mM HEPES, 3 mM MgCl2, 0.1% BSA, pH 7.4 with or without test compounds. The enzymatic reactions are efficiently stopped by the addition of 500 μM IBMX present in the combined Stop/Detection buffer containing europium (Eu) chelate-labeled cAMP tracer and cAMP-specific monoclonal antibodies (mAb) labelled with the ULight™ dye. […] IC50 values are determined from competition curves using a non-linear curve fitting program.

[1] = M3 Receptor radioligand binding assay, read-out: M3 IC50 Activity
[2] = PDE4B2 HTRF assay, read-out: PDE4B2 IC50 Activity

Human recombinant PDE4B2, sequence (Q07343 other isoform, or with tags, fused parts or gaps): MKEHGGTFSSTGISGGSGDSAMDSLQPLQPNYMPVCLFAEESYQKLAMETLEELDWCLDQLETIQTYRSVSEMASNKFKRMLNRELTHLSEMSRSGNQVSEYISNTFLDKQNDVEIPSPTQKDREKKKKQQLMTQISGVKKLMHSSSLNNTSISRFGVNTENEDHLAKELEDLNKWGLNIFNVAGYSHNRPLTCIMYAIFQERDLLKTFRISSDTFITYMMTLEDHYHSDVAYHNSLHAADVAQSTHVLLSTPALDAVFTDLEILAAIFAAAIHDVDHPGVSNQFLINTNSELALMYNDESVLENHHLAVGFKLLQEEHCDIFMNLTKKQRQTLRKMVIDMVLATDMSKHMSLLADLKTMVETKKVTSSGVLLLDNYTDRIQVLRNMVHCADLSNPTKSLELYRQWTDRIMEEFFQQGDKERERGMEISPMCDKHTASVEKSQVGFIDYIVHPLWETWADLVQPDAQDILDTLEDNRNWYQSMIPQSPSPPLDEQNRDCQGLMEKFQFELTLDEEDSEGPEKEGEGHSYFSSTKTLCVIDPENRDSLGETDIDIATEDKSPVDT
Human M3 receptor, sequence (P20309 whole entry): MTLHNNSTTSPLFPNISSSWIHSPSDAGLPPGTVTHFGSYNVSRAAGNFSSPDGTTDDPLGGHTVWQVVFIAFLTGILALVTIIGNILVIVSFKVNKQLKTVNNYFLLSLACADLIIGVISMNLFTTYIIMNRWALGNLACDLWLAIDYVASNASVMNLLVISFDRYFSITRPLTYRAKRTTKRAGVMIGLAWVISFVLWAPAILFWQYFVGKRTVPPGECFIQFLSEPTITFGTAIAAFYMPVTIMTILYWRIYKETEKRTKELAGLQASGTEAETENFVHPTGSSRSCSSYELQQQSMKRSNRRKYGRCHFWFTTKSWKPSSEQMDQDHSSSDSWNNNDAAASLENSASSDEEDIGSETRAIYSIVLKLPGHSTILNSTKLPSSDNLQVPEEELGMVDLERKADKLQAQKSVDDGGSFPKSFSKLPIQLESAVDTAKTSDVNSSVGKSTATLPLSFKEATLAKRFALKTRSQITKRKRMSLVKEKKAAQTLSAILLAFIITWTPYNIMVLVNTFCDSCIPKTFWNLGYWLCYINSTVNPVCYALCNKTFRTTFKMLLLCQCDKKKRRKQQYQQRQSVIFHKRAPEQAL

| Structure (SMILES) | pIC50 (Human M3 receptor; M3 IC50 Activity) | pIC50 (Human recombinant PDE4B2) | pIC50 (Human M3 receptor; [1]) | pIC50 (Human recombinant PDE4B2; [2]) | further results |
| --- | --- | --- | --- | --- | --- |
| COc1ccc([C@H](Cc2c(Cl)c[n+]([O-])cc2Cl)OC(=O)c2ccc(CNCC(C(=O)O[C@H]3CN4CCC3CC4)c3ccccc3)cc2)cc1OC (stereo partly drawn) [Example 2, [(1S)-2-(3,5-dichloro-1-oxido-pyridin-1-ium-4-yl)-1-(3,4-dimethoxyphenyl)ethyl] 4-[[[3-oxo-2-phenyl-3-[(3R)-quinuclidin-3-yl]oxy-propyl]amino]methyl]benzoate] | 8.00 to 9.00 | 8.00 to 9.00 |  |  |  |
| COc1ccc([C@H](Cc2c(Cl)c[n+]([O-])cc2Cl)OC(=O)c2ccc(CNCC(C)(C(=O)OC3CCN(C)CC3)c3ccccc3)s2)cc1OC (stereo partly drawn) [Example 25, [(1S)-2-(3,5-dichloro-1-oxido-pyridin-1-ium-4-yl)-1-(3,4-dimethoxyphenyl)ethyl] 5-[[[2-methyl-3-[(1-methyl-4-piperidyl)oxy]-3-oxo-2-phenyl-propyl]amino]methyl]thiophene-2-carboxylate] |  |  | 7.00 to 8.00 | 8.00 to 9.00 |  |
| COc1ccc([C@H](Cc2c(Cl)c[n+]([O-])cc2Cl)OC(=O)c2ccc(CNCC(C(=O)O[C@H]3CN4CCC3CC4)c3ccccc3)s2)cc1OC (stereo partly drawn) [Example 1, [(1S)-2-(3,5-dichloro-1-oxido-pyridin-1-ium-4-yl)-1-(3,4-dimethoxyphenyl)ethyl] 5-[[[3-oxo-2-phenyl-3-[(3R)-quinuclidin-3-yl]oxy-propyl]amino]methyl]thiophene-2-carboxylate] | 8.00 to 9.00 | 8.00 to 9.00 |  |  |  |
| COc1ccc([C@H](Cc2c(Cl)c[n+]([O-])cc2Cl)OC(=O)c2ccc(CNCC(C(=O)O[C@H]3CN4CCC3CC4)c3ccccc3)s2)cc1OC (single isomer, unassigned) [Example 21] | 8.00 to 9.00 |  |  |  | pIC50 (Human recombinant PDE4B2; read-out: PDE4B2 IC50 Activity): 8.00 to 9.00 |
| COc1ccc([C@H](Cc2c(Cl)c[n+]([O-])cc2Cl)OC(=O)c2ccc(CNC3CC(C(=O)O[C@H]4CN5CCC4CC5)(c4ccccc4)C3)s2)cc1OC (stereo partly drawn) [Example 37, [(1S)-2-(3,5-dichloro-1-oxido-pyridin-1-ium-4-yl)-1-(3,4-dimethoxyphenyl)ethyl] 5-[[[3-phenyl-3-[(3R)-quinuclidin-3-yl]oxycarbonyl-cyclobutyl]amino]methyl]thiophene-2-carboxylate] |  |  |  |  | pIC50 (Human M3 receptor; read-out: M3 IC50 Activity): 8.00 to 9.00; pIC50 (Human recombinant PDE4B2; read-out: PDE4B2 IC50 Activity): 8.00 to 9.00 |
| COc1ccc([C@H](Cc2c(Cl)c[n+]([O-])cc2Cl)OC(=O)c2ccc(CNC3CC(C(=O)OC4CCN(C)CC4)(c4ccccc4)C3)s2)cc1OC (single isomer, unassigned) [Example 35] |  |  | 8.00 to 9.00 | 8.00 to 9.00 |  |
| COc1ccc([C@H](Cc2c(Cl)c[n+]([O-])cc2Cl)OC(=O)c2ccc(CN(C)CC(C)(C(=O)O[C@H]3CN4CCC3CC4)c3ccccc3)s2)cc1OC (stereo partly drawn) [Example 10, [(1S)-2-(3,5-dichloro-1-oxido-pyridin-1-ium-4-yl)-1-(3,4-dimethoxyphenyl)ethyl]-5-[[methyl-[2-methyl-3-oxo-2-phenyl-3-[(3R)-quinuclidin-3-yl]oxy-propyl]amino]methyl]thiophene-2-carboxylate] | 8.00 to 9.00 | 8.00 to 9.00 |  |  |  |
| COc1ccc([C@H](Cc2c(Cl)c[n+]([O-])cc2Cl)OC(=O)c2ccc(CNCC(C(=O)OCCN(C)C)c3ccccc3)s2)cc1OC (stereo partly drawn) [Example 22, [(1S)-2-(3,5-dichloro-1-oxido-pyridin-1-ium-4-yl)-1-(3,4-dimethoxyphenyl)ethyl] 5-[[[3-(2-dimethylaminoethyloxy)-3-oxo-2-phenyl-propyl]amino]methyl]thiophene-2-carboxylate] |  |  | 8.00 to 9.00 | 8.00 to 9.00 |  |
| COc1ccc([C@H](Cc2c(Cl)c[n+]([O-])cc2Cl)OC(=O)c2ccc(CNCC(C(=O)O[C@H]3CN4CCC3CC4)c3ccccc3)s2)cc1OC (single isomer, unassigned) [Example 20] | > 9.00 | 8.00 to 9.00 |  |  |  |
| COc1ccc([C@H](Cc2c(Cl)c[n+]([O-])cc2Cl)OC(=O)c2ccc(CN(C)CC(C)(C(=O)O[C@H]3CN4CCC3CC4)c3ccccc3)s2)cc1OC (stereo partly drawn) [Example 26, [(1S)-2-(3,5-dichloro-1-oxido-pyridin-1-ium-4-yl)-1-(3,4-dimethoxyphenyl)ethyl] 5-[[methyl-[2-methyl-3-oxo-2-phenyl-3-[(3R)-quinuclidin-3-yl]oxy-propyl]amino]methyl]thiophene-2-carboxylate] |  |  |  |  | pIC50 (Human M3 receptor; read-out: M3 IC50 Activity): 8.00 to 9.00; pIC50 (Human recombinant PDE4B2; read-out: PDE4B2 IC50 Activity): 8.00 to 9.00 |
| COc1ccc([C@H](Cc2c(Cl)c[n+]([O-])cc2Cl)OC(=O)c2ccc(CNC3CC(C(=O)OC4CCN(C)CC4)(c4ccccc4)C3)s2)cc1OC (single isomer, unassigned) [Example 34] |  |  | 7.00 to 8.00 | 8.00 to 9.00 |  |
| COc1ccc([C@H](Cc2c(Cl)c[n+]([O-])cc2Cl)OC(=O)c2ccc(CNCC(C)(C(=O)O[C@H]3CN4CCC3CC4)c3ccccc3)s2)cc1OC (stereo partly drawn) [Example 31, [(1S)-2-(3,5-dichloro-1-oxido-pyridin-1-ium-4-yl)-1-(3,4-dimethoxyphenyl)ethyl] 5-[[[2-methyl-3-oxo-2-phenyl-3-[(3R)-quinuclidin-3-yl]oxy-propyl]amino]methyl]thiophene-2-carboxylate] | 7.00 to 8.00 | 8.00 to 9.00 |  |  |  |
| COc1ccc([C@H](Cc2c(Cl)c[n+]([O-])cc2Cl)OC(=O)c2ccc(CNCC(C(=O)O[C@@H]3CCN(C)C3)c3ccccc3)s2)cc1OC (stereo partly drawn) [Example 4, [(1S)-2-(3,5-dichloro-1-oxido-pyridin-1-ium-4-yl)-1-(3,4-dimethoxyphenyl)ethyl]-5-[[[3-[(3R)-1-methylpyrrolidin-3-yl]oxy-3-oxo-2-phenyl-propyl]amino]methyl]thiophene-2-carboxylate] |  |  | 7.00 to 8.00 | 8.00 to 9.00 |  |
| COc1ccc([C@H](Cc2c(Cl)c[n+]([O-])cc2Cl)OC(=O)c2ccc(CNCC(C)(C(=O)OCCN(C)C)c3ccccc3)s2)cc1OC (stereo partly drawn) [Example 29, [(1S)-2-(3,5-dichloro-1-oxido-pyridin-1-ium-4-yl)-1-(3,4-dimethoxyphenyl)ethyl] 5-[[[3-(2-dimethylaminoethyloxy)-2-methyl-3-oxo-2-phenyl-propyl]amino]methyl]thiophene-2-carboxylate] |  |  | 7.00 to 8.00 | 8.00 to 9.00 |  |
| COc1ccc([C@H](Cc2c(Cl)c[n+]([O-])cc2Cl)OC(=O)c2ccc(CCN3CCC(C(=O)O[C@H]4CN5CCC4CC5)(c4ccccc4)CC3)cc2)cc1OC [Example 12, [(3R)-quinuclidin-3-yl]-1-[2-[4-[(1S)-2-(3,5-dichloro-1-oxido-pyridin-1-ium-4-yl)-1-(3,4-dimethoxyphenyl)ethoxy]carbonylphenyl]ethyl]-4-phenyl-piperidine-4-carboxylate] | 8.00 to 9.00 | 8.00 to 9.00 |  |  |  |
| COc1ccc([C@H](Cc2c(Cl)c[n+]([O-])cc2Cl)OC(=O)c2ccc(CNC3CC(C(=O)O[C@H]4CN5CCC4CC5)(c4ccccc4)C3)s2)cc1OC (stereo partly drawn) [Example 33, [(1S)-2-(3,5-dichloro-1-oxido-pyridin-1-ium-4-yl)-1-(3,4-dimethoxyphenyl)ethyl] 5-[[[3-phenyl-3-[(3R)-quinuclidin-3-yl]oxycarbonyl-cyclobutyl]amino]methyl]thiophene-2-carboxylate] | 8.00 to 9.00 | 8.00 to 9.00 |  |  |  |
| COc1ccc([C@H](Cc2c(Cl)c[n+]([O-])cc2Cl)OC(=O)c2ccc(CNCC(C)(C(=O)O[C@H]3CN4CCC3CC4)c3ccccc3)s2)cc1OC (stereo partly drawn) [Example 7, [(1S)-2-(3,5-dichloro-1-oxido-pyridin-1-ium-4-yl)-1-(3,4-dimethoxyphenyl)ethyl] 5-[[[2-methyl-3-oxo-2-phenyl-3-[(3R)-quinuclidin-3-yl]oxy-propyl]amino]methyl]thiophene-2-carboxylate] |  |  |  |  | pIC50 (Human recombinant PDE4B2; read-out: PDE4B2 IC50 Activity): 8.00 to 9.00 |
